Reference: ChEMBL document CHEMBL1155132, “Synthesis and structure-activity relationship of 1H-indole-3-carboxylic acid pyridine-3-ylamides: a novel series of 5-HT2C receptor antagonists” (Bioorg Med Chem Lett, 2008)

Assays:
[1] = target: T1, 5-hydroxytryptamine receptor 2C (Homo sapiens, UniProt P28335); test: Displacement of [3H]mesulergine at human cloned 5HT2C receptor expressed in CHOK1 cell; assay type: cell-based, CHO-K1
T1 sequence (P28335 whole entry): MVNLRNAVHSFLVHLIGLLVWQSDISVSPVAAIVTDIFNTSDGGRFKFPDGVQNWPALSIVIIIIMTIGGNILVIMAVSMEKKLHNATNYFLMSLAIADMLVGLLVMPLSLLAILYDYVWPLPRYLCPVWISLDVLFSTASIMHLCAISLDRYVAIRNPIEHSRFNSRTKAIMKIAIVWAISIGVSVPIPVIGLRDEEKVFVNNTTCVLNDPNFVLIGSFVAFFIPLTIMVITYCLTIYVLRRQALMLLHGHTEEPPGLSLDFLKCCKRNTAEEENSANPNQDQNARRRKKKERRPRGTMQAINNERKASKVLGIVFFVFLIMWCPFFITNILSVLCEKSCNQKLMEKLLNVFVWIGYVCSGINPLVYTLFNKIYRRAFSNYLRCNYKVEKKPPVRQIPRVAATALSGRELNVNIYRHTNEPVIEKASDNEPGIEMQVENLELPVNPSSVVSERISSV

[2] = target: T2, 5-hydroxytryptamine receptor 1A (Homo sapiens, UniProt P08908); test: Displacement of [3H]8-OH-DPAT from human cloned 5HT1A receptor
T2 sequence (P08908 whole entry): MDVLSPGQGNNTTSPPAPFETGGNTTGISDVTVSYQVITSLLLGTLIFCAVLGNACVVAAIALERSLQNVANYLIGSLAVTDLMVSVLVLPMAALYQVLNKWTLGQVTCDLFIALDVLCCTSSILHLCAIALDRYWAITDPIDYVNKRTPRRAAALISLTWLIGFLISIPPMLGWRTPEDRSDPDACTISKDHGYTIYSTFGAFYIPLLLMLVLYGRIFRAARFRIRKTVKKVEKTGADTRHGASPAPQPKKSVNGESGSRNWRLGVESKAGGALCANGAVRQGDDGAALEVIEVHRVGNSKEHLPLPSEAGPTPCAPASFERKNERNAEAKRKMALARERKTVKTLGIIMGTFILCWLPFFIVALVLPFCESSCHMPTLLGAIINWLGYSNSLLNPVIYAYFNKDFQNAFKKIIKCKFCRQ

[3] = target: 5-hydroxytryptamine receptor 2A (Homo sapiens, UniProt P28223); test: Displacement of [3H]ketanserin from human cloned 5HT2A receptor
[4] = target: 5-hydroxytryptamine receptor 6 (Homo sapiens, UniProt P50406); test: Displacement of [3H]LSD from human cloned 5HT6 receptor
[5] = target: 5-hydroxytryptamine receptor 7 (Homo sapiens, UniProt P34969); test: Displacement of [3H]LSD from human cloned 5HT7 receptor
[6] = target: D(2) dopamine receptor (Homo sapiens, UniProt P14416); test: Displacement of [3H]spiperone from human cloned dopamine D2 receptor
[7] = target: D(3) dopamine receptor (Homo sapiens, UniProt P35462); test: Displacement of [3H]spiperone from human cloned dopamine D3 receptor
[8] = target: T3, D(4) dopamine receptor (Homo sapiens, UniProt P21917); test: Displacement of [3H]spiperone from human cloned dopamine D4 receptor
T3 sequence (P21917 whole entry): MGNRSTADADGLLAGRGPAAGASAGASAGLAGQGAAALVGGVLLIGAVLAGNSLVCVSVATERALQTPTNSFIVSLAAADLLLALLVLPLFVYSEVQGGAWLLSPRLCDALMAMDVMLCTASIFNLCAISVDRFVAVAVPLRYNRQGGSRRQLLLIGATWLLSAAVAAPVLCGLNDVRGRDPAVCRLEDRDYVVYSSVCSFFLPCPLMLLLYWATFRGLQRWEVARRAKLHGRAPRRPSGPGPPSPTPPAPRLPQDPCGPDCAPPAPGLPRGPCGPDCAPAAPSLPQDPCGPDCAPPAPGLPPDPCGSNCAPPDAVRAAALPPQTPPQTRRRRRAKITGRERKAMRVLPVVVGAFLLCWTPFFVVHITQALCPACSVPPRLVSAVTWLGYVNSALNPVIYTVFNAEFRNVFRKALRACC

Sequence of D(2) dopamine receptor (P14416 whole entry): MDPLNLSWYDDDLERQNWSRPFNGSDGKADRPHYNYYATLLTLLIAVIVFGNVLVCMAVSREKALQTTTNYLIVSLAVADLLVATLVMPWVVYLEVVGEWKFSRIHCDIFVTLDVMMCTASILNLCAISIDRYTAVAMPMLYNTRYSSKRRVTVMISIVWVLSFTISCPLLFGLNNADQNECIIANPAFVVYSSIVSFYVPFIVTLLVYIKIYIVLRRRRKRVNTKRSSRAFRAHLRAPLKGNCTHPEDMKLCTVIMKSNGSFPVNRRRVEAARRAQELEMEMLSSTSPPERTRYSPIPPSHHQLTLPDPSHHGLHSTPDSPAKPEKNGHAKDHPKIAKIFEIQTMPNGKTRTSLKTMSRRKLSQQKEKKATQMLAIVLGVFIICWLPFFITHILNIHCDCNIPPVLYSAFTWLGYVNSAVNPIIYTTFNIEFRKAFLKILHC
Sequence of 5-hydroxytryptamine receptor 7 (P34969 whole entry): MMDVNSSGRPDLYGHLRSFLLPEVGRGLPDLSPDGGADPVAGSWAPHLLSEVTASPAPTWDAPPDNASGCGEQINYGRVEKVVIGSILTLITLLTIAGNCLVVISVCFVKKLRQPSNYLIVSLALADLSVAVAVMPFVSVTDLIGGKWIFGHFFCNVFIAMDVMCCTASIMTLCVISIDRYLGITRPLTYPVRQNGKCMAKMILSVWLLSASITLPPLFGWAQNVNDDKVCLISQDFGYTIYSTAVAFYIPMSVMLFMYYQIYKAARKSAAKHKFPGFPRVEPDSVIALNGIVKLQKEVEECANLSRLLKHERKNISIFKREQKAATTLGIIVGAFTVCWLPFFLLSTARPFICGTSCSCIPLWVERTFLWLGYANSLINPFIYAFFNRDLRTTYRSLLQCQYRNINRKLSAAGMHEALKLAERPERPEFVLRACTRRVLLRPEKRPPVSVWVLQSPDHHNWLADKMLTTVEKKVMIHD
Sequence of 5-hydroxytryptamine receptor 2A (P28223 whole entry): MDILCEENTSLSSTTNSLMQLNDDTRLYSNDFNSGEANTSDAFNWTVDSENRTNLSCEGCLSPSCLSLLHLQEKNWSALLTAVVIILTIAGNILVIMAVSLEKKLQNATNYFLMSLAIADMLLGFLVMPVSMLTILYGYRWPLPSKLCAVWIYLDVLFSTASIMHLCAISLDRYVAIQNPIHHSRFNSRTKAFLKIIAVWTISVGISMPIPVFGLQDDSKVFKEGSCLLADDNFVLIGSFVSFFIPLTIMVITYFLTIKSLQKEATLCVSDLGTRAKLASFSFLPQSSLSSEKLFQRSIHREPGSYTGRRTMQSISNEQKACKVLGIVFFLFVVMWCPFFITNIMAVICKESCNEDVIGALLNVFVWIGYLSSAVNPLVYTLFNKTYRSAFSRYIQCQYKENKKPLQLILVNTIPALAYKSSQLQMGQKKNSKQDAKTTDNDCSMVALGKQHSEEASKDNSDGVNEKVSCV
Sequence of 5-hydroxytryptamine receptor 6 (P50406 whole entry): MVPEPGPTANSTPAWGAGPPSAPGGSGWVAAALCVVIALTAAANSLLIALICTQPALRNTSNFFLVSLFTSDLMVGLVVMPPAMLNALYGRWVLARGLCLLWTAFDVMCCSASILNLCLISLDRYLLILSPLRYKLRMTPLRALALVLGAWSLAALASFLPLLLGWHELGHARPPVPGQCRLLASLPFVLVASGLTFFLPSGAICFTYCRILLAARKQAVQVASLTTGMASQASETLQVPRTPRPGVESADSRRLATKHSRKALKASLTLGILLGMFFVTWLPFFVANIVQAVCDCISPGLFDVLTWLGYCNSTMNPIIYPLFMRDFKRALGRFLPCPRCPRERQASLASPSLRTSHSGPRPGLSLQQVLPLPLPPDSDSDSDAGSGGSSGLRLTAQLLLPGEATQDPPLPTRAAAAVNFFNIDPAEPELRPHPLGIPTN
Sequence of D(3) dopamine receptor (P35462 whole entry): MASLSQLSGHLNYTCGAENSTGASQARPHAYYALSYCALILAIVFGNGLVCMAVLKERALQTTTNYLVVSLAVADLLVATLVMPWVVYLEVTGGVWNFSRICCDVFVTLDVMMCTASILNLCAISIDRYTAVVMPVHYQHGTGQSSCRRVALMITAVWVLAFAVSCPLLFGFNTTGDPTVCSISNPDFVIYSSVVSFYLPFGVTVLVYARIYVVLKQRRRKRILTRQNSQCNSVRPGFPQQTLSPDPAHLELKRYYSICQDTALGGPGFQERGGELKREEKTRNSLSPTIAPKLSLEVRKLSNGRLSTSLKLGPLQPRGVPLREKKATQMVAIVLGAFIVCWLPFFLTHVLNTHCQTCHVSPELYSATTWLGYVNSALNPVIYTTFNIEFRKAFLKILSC

Compound | IC50 [1] [nM] | IC50 [8] [µM] | other results
Cc1ncccc1Oc1ccc(NC(=O)c2cc3ccccc3[nH]2)cn1 | 59 | – | –
O=C(Nc1ccc(OCc2ccccn2)nc1)c1c[nH]c2ccccc12 | 6 | – | –
O=C(Nc1ccc(Oc2cccnc2)nc1)c1c[nH]c2ccccc12 | – | > 10 | IC50 [2]: > 10 µM; IC50 [3]: > 1000 nM; IC50 [4]: > 10 µM; IC50 [5]: > 10 µM; IC50 [6]: > 10 µM; IC50 [7]: > 10 µM
O=C(Nc1ccc(Oc2cccnc2Cl)nc1)c1c[nH]c2ccccc12 | – | > 10 | –
O=C(Nc1cccnc1)c1c[nH]c2ccccc12 | > 10000 | – | –
Cc1cc2c(cc1C(F)(F)F)N(C(=O)Nc1ccc(Oc3cccnc3C)nc1)CC2 [SB-243213] | – | > 1 | –
